Results taken from ChEMBL document CHEMBL3217599, “Selective antitumour activity and ER molecular docking studies of newly synthesizedd-homo fused steroidal tetrazoles” (Medchemcomm, 2013).

Tests used:
HT-29 = assay: Cytotoxicity against human HT-29 cells expressing estrogen receptor after 48 hrs by MTT assay; assay type: functional, cell-based; settings: HT-29, 48 h
PC-3 [1] = assay: Cytotoxicity against human PC3 cells expressing estrogen receptor after 48 hrs by MTT assay; assay type: functional, cell-based; settings: PC-3, 48 h
MCF7 = assay: Cytotoxicity against human MCF7 cells expressing estrogen receptor after 48 hrs by MTT assay; assay type: functional, cell-based; settings: MCF7, 48 h
MRC5 = assay: Cytotoxicity against human MRC5 cells expressing estrogen receptor after 48 hrs by MTT assay; assay type: cell-based; settings: MRC5, 48 h
K562 = assay: Cytotoxicity against human K562 cells expressing estrogen receptor after 48 hrs by MTT assay; assay type: functional, cell-based; settings: K562, 48 h
MDA-MB-231 = assay: Cytotoxicity against estrogen receptor-deficient human MDA-MB-231 cells after 48 hrs by MTT assay; assay type: functional, cell-based; settings: MDA-MB-231, 48 h
HeLa = assay: Cytotoxicity against human HeLa cells expressing estrogen receptor after 48 hrs by MTT assay; assay type: functional, cell-based
PC-3 [2] = assay: Ratio of doxorubicin IC50 to compound IC50 for human PC3 cells expressing estrogen receptor after 48 hrs by MTT assay; assay type: functional

Row | SMILES | IC50 (HT-29) [µM] | IC50 (PC-3 [1]) [µM] | IC50 (MCF7) [µM] | IC50 (MRC5) [µM] | IC50 (K562) [µM] | IC50 (MDA-MB-231) [µM] | IC50 (HeLa) [µM] | Ratio IC50 (PC-3 [2])
1 | CC(=O)O[C@H]1CC[C@@]2(C)C(=CC[C@H]3[C@@H]4Cc5nnnn5[C@H](C)[C@@]4(C)CC[C@@H]32)C1 | > 100 | 15.3 | 25.4 | > 100 | 11.1 | 89.6 | > 100 | >6
2 | CC(=O)O[C@H]1CC[C@@]2(C)C(=CC[C@H]3[C@@H]4Cc5nnnn5C[C@@]4(C)CC[C@@H]32)C1 | > 100 | 79 | 56.2 | > 100 | 45.2 | > 100 | > 100 | –
3 | COc1cccc2c1C(=O)c1c(O)c3c(c(O)c1C2=O)C[C@@](O)(C(=O)CO)C[C@@H]3O[C@H]1C[C@H](N)[C@H](O)[C@H](C)O1 [DOXORUBICIN] | 0.32 | – | 0.75 | – | 0.36 | – | – | –
4 | C[C@]12CC[C@@H]3c4ccc(OCc5ccccc5)cc4CC[C@H]3[C@@H]1Cc1nnnn1C2 | > 100 | 65.5 | 12.6 | > 100 | > 100 | > 100 | > 100 | –
5 | C[C@H]1n2nnnc2C[C@H]2[C@@H]3CCc4cc(OCc5ccccc5)ccc4[C@H]3CC[C@@]21C | 18 | > 100 | 4.58 | > 100 | > 100 | > 100 | > 100 | –
